# In US20240398844A1, “PHENYLCOUMARINS FOR TREATING INFLAMMATION” (Ohio State Innovation Foundation, priority 2021, published 2024):
# What was measured:
# HbA1C = assay: Diabetic zebrafish Western blot, HbA1C expression; assay type: in vivo
# Method: (§1) Alloxan-induced diabetic zebrafish were treated with compounds for immunoblot to validate the newly developed animal model, determine the antidiabetic potential of natural product leads, evaluate glucose metabolism, and discover possible mechanisms of action.
# At 72 hpf, naturally dechorionated zebrafish were sorted into a 24-well microplate with 10 fish per well. Type 2 diabetes was induced with the diabetogenic agent alloxan at a dose of 0.5 mg/mL in system water for 3 hours. […] After 3 hours of treatment with natural product samples, 10 mg/mL D-glucose was administered in system water for 30 minutes, followed by 1 hour in fresh system water to metabolize the glucose and natural product leads. Upon completion of the 4-phase treatment cycle, zebrafish treatment groups were snap frozen into individual microcentrifuge tubes on dry ice, stored overnight at −80° C., thawed, homogenized with 2 μL PBS per animal, and centrifuged at 4° C. for 1 hour at 17,000 rpm. Protein content of homogenate supernatant was determined using the Pierce BCA Protein Assay kit (Pierce Biotechnology) and bovine serum albumin (BSA) standard curve. Absorbance of protein solutions from zebrafish homogenates and serial dilutions of the BSA standard were measured at 544 nm, using a FLUOstar Optima plate reader (BMG Labtechnologies GmbH, Inc.). Homogenates were analyzed by Western blot. Equal amounts of protein (20 μg) were combined with 4× lithium dodecyl sulphate (LDS) loading buffer (NuPAGE, Life Technologies, Carlsbad, CA, USA), brought to volume (15 μL) with PBS, and heated to 95° C. for 5 minutes. Proteins were resolved using NuPAGE Bis-Tris 4-12% gradient sodium dodecyl sulfate polyacrylamide gel electrophoresis (SDS-PAGE) gels together with SeeBlue Plus2 Pre-Stained Standard Ladder (Life Technologies).
# Electrophoresis was performed using NuPAGE MES SDS Running Buffer and XCell SureLock Mini-Cell Electrophoresis System (Life Technologies). Separated proteins were transferred from the gel to a polyvinylidene fluoride (PVDF) membrane using tris buffered saline with Tween-20 (TBST) buffer. The blots were blocked in 3% BSA in TBST and subsequently probed using primary antibodies (1:1000 in 1% BSA in TBST) against each target overnight (Table 1). The secondary, horseradish peroxidase (HRP) conjugated antibodies (1:2000) were obtained from Santa Cruz Biotechnology Inc., (Santa Cruz, CA, USA). Conjugated antibodies were detected using SuperSignal West Femto chemiluminescent substrate from Pierce Biotechnology. Western blots were visualized, and images captured using a luminometer and LumiAnalyst 3.0 software (Boehringer-Mannheim, Mannheim, Germany). Band density was quantified for proteins of interest using ImageJ Gel Analysis.
# In the case of duplicate blots, the band density results were expressed in bar graphs as the mean±standard error of the mean (SEM) of two independent experiments. Due to the labor- and time-intensive aspect of Western blot analysis with multiple target proteins, a maximum of two independent immunoblot experiments were performed per compared sample set. […] Additionally, treatment groups were also evaluated versus the diabetic, untreated control group for significance by Student's f-test and indicated in the bar graphs with p values represented by *p<0.05, **p<0.01, and ***p<0.001. […]
# [1] = Solubility in NMR solvents; assay type: physicochemical; conditions: CD3OD
# Method: Solubility of the fractions was a challenge, and chloroform-d (CDCl3), […], methanol-d4 (CD3OD), dimethyl sulfoxide-d6, and water-d2 (D2O) (Cambridge Isotope Laboratories, Tewksbury, MA, USA) were all tried as solvents. […] Since there was only 1.5 mg of material, further purification and structure elucidation were not pursued.
# Fraction 3 was most soluble in D2O, and at approximately 11 mg/mL, ^1H and ^13C NMR data were obtained in an effort to confirm the presence of an isopropyl ether derivative (40). However, solubility of fraction 3 continued to be problematic even in D2O. Further acquisition attempts with increased probe temperature (310 K) were no more successful at keeping the compound (40) in solution.
# GLUT-4 = assay: Diabetic zebrafish Western blot, GLUT-4 expression; assay type: in vivo; conditions: 10 μM, FIG. 5
# Method: as §1
# At 72 hpf, naturally dechorionated zebrafish were sorted into a 24-well microplate with 10 fish per well. Type 2 diabetes was induced with the diabetogenic agent alloxan at a dose of 0.5 mg/mL in system water for 3 hours. The incubation solution was changed to 0.01% DMSO in system water with compounds at concentrations of 20 μg/mL or […], respectively. After 3 hours of treatment with natural product samples, 10 mg/mL D-glucose was administered in system water for 30 minutes, followed by 1 hour in fresh system water to metabolize the glucose and natural product leads. Upon completion of the 4-phase treatment cycle, zebrafish treatment groups were snap frozen into individual microcentrifuge tubes on dry ice, stored overnight at −80° C., thawed, homogenized with 2 μL PBS per animal, and centrifuged at 4° C. for 1 hour at 17,000 rpm. Protein content of homogenate supernatant was determined using the Pierce BCA Protein Assay kit (Pierce Biotechnology) and bovine serum albumin (BSA) standard curve. Absorbance of protein solutions from zebrafish homogenates and serial dilutions of the BSA standard were measured at 544 nm, using a FLUOstar Optima plate reader (BMG Labtechnologies GmbH, Inc.). Homogenates were analyzed by Western blot. Equal amounts of protein (20 μg) were combined with 4× lithium dodecyl sulphate (LDS) loading buffer (NuPAGE, Life Technologies, Carlsbad, CA, USA), brought to volume (15 μL) with PBS, and heated to 95° C. for 5 minutes. […]
# Electrophoresis was performed using NuPAGE MES SDS Running Buffer and XCell SureLock Mini-Cell Electrophoresis System (Life Technologies). […] Conjugated antibodies were detected using SuperSignal West Femto chemiluminescent substrate from Pierce Biotechnology. […] Band density was quantified for proteins of interest using ImageJ Gel Analysis. […]
# [2] = diabetic zebrafish, 10, 5, and 1 μM (rosiglitazone 10 μM), duplicate blots, FIG. 7
compound,measurement,setting,value
"COc1cc(O[C@@H]2OCC(O)(CO[C@@H]3OC(CO)[C@@H](O)C(O)C3O)C2O)c2c(-c3ccc(OC(C)C)c(O)c3)cc(=O)oc2c1 (single isomer, unassigned) [Compound 40]",HbA1C expression (Western blot band density),HbA1C; [2],lacking a dose-dependent response
same,solubility (relative),[1],even less soluble than 24
"COc1cc(O[C@@H]2O[C@H](CO[C@@H]3OCC(O)(CO)[C@H]3O)[C@@H](O)[C@H](O)[C@H]2O)c2c(-c3ccc(O)c(O)c3)cc(=O)oc2c1 (stereo partly drawn) [Compound 24, 5-O-[β-D-apiofuranosyl-(1→6)-β-D-glucopyranosyl]-7-methoxy-3′,4′-dihydroxy-4-phenylcoumarin]",HbA1C expression (Western blot band density),"HbA1C; diabetic zebrafish, 10 μM, library screen, FIG. 2 / FIG. 11",most effective in reducing glycated hemoglobin
same,HbA1C expression (Western blot band density),HbA1C; [2],reduced glycated hemoglobin levels in comparison to rosiglitazone
same,GLUT-4 expression (Western blot),GLUT-4,strong GLUT-4 expression
